The values below come from ChEMBL document CHEMBL1138948, “Design, synthesis, and evaluation of proline and pyrrolidine based melanocortin receptor agonists. A conformationally restricted dipeptide mimic approach” (J Med Chem, 2006).

The structures appear in SMILES notation.

Data set [1] addresses T1, Melanocortin receptor 3 (Homo sapiens, UniProt P41968). As to the kind of experiment: Agonist activity at human MC3R transfected in HEK293 cells. Format: functional, cell-based.
Data set [2] is described as follows: Absorptive permeability across Caco-2 cell membrane. In kind it is ADME, cell-based. Particulars: human, read-out: permeability (converted). On the technique in general: Passage across Caco-2 layers is used to estimate intestinal permeability.
Data set [3] in a line: Exsorptive permeability across Caco-2 cell membrane. In kind it is ADME, cell-based. Conditions: human, read-out: permeability (converted).
Data set [4] addresses T2, Melanocortin receptor 4 (Homo sapiens, UniProt P32245). As to the kind of experiment: Displacement of europium labeled NDP-alpha-MSH from human MC4R expressed in HEK293 cells. Format: cell-based.
Data set [5] has as its target T2, Melanocortin receptor 4. As to the kind of experiment: Agonist activity at human MC4R transfected in HEK293 cells. In kind it is functional, cell-based.
Data set [6] concerns the target T3, Melanocyte-stimulating hormone receptor (Homo sapiens, UniProt Q01726). As to the kind of experiment: Displacement of europium labeled NDP-alpha-MSH from human MC1R expressed in HEK293 cells. Format: cell-based.
For data set [7], the target named is T3, Melanocyte-stimulating hormone receptor. As to the kind of experiment: Agonist activity at human MC1R transfected in HEK293 cells. In kind it is functional, cell-based.
The target of data set [8] is T1, Melanocortin receptor 3. As to the kind of experiment: Displacement of europium labeled NDP-alpha-MSH from human MC3R expressed in HEK293 cells. Format: cell-based.
Data set [9] addresses Melanocortin receptor (M1 and M4) (Homo sapiens) (UniProt P32245+Q01726). As to the kind of experiment: Selectivity for human MC4R over human MC1R. In kind it is protein assay.

T2 sequence (P32245 whole entry): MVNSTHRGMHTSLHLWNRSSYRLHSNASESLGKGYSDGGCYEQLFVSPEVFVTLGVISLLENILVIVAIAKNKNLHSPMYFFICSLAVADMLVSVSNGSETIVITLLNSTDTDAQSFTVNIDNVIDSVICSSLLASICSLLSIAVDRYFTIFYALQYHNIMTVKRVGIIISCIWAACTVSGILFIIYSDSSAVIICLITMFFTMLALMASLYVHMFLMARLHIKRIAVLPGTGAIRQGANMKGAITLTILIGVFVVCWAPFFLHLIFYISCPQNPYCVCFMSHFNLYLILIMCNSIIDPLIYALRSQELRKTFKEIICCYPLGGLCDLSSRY
T3 sequence (Q01726 whole entry): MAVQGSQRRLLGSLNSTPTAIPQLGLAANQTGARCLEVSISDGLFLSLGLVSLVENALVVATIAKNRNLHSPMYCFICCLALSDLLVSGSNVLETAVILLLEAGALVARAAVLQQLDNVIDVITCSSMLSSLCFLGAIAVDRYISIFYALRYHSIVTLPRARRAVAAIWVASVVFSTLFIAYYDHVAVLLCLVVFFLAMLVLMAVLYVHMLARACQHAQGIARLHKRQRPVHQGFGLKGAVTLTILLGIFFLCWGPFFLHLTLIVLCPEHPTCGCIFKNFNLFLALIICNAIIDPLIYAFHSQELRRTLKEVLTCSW
T1 sequence (P41968 whole entry): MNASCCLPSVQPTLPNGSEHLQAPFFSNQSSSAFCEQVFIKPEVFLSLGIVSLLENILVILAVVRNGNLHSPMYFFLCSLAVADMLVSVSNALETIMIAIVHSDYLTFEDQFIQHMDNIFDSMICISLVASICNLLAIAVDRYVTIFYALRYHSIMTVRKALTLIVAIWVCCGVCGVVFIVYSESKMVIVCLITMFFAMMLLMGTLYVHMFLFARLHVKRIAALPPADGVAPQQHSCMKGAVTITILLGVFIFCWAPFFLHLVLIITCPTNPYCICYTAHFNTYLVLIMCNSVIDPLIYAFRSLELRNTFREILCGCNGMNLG

Turning to `CC(=O)N[C@@H](Cc1cnc[nH]1)C(=O)N[C@H](Cc1ccccc1)C(=O)N1C[C@H](OCc2ccc3ccccc3c2)C[C@@H]1C(=O)NCCN=C(N)N`, the EC50 (in general, the concentration at which the effect is half-maximal) was 340 nM in data set [1], 152 nM in data set [5] and 3 nM in data set [7]. In data set [2], the Papp A→B was 1 ×10⁻⁶ cm/s. In addition, in data set [3], the Papp was 0.5 ×10⁻⁶ cm/s. In addition, the values for the Ki in data set [4], in data set [6] and in data set [8] were 1580 nM, 13 nM and 824 nM, respectively.

Regarding `OC[C@@H](O)[C@@H](O)[C@H](O)[C@H](O)CO` [MANNITOL], the Papp A→B in data set [2] was 2.17 ×10⁻⁶ cm/s. Besides, the Papp in data set [3] was 1.83 ×10⁻⁶ cm/s.

As for `CC(=O)N[C@H](Cc1ccccc1)C(=O)N1C[C@H](OCc2ccc3ccccc3c2)C[C@@H]1CCCN=C(N)N`, the EC50 in [1] turned out to be 1380 nM; in data set [5], 317 nM; in [7], 232 nM. Also, the Papp A→B in data set [2] is 7.5 ×10⁻⁶ cm/s. Further, the Papp in [3] is 6.17 ×10⁻⁶ cm/s. Moreover, the Ki (commonly a dissociation constant, usually derived from enzyme kinetics or from competition with a known ligand) was determined as 90 nM in data set [4], 463 nM in [6] and 289 nM in data set [8].

For the compound `CC(=O)N[C@@H](Cc1ccc(O)cc1)C(=O)N[C@H](Cc1ccccc1)C(=O)N1C[C@H](OCc2ccc3ccccc3c2)C[C@@H]1C(=O)NCCN=C(N)N`, the EC50 in [1] worked out at 1220 nM; in [5], 254 nM; in [7], 1340 nM. The Ki in [4] was 559 nM; in [6], 2050 nM; in data set [8] it was 501 nM. Also, in [9], the Selectivity ratio was 4.

`N=C(N)NCCNC(=O)[C@H]1C[C@@H](OCc2ccc3ccccc3c2)CN1C(=O)[C@@H](Cc1ccccc1)NC(=O)[C@@H]1Cc2ccccc2CN1`: the EC50 was determined as 825 nM in data set [1], 97 nM in data set [5] and 539 nM in [7]. The Ki came to 411 nM in [4], 1620 nM in data set [6] and 4390 nM in [8]. The Selectivity ratio in [9] stood at 4.

Regarding `CC(=O)N[C@@H](Cc1c[nH]cn1)C(=O)N[C@H](Cc1ccccc1)C(=O)N1C[C@@H](OCc2ccc3ccccc3c2)C[C@H]1CCCN=C(N)N`, the concentration for a half-maximal effect (EC50) in [1] turned out to be 1130 nM; in [5], 9 nM; in data set [7] it was 1220 nM. Besides, the Ki in data set [4] was found to be 14 nM; in [6], 2970 nM; in [8], 1960 nM. In addition, the Selectivity ratio in data set [9] was greater than 150.

For `CC(=O)N[C@@H](Cc1ccc(O)cc1)C(=O)N[C@H](Cc1ccccc1)C(=O)N1C[C@H](OCc2ccc3ccccc3c2)C[C@@H]1CCCN=C(N)N`, the EC50 came out at 85 nM in data set [1], 14 nM in [5] and 88 nM in data set [7]. Besides, the Ki stood at 21 nM in data set [4], 85 nM in data set [6] and 42 nM in data set [8]. The Selectivity ratio in data set [9] came out at 4.

For the compound `NC(N)=NCCC[C@H]1C[C@@H](OCc2ccc3ccccc3c2)CN1C(=O)[C@H](N)Cc1ccccc1`, the EC50 in data set [1] is 871 nM; in [5] it was 291 nM; in [7], 151 nM. Further, the values for the Ki in data set [4], in [6] and in data set [8] were 305 nM, 381 nM and 1240 nM, respectively.

`NC(N)=NCCNC(=O)[C@H]1C[C@@H](OCc2ccc3ccccc3c2)CN1C(=O)[C@@H](Cc1ccccc1)NC(=O)C1CCNCC1`: the values for the EC50 in [1], in data set [5] and in [7] were 2470 nM, 501 nM and 104 nM, respectively. The Ki in data set [4] was determined as 1020 nM; in data set [6], 121 nM; in data set [8] it was 3180 nM.
